According to EP4763839A1 (Pamplona Therapeutics (Shenzhen) Co., Ltd., priority 2023, dated 2025):
Where two headings read alike, the source gives them in different places.

How the values were obtained:
IL-6 = assay: Inhibition of R848-induced IL-6 release in human PBMCs, IL-6 ELISA; assay type: cell-based; conditions: PBMC, compound 24 hours, then R848 10 µg/mL 5 hours
Description: Example 3: Detection of inhibition of R848-induced IL-6 release
Cryopreserved human PBMCs (Milestone® Biotechnologies, PB010C-W) were thawed and resuspended in RPMI-1640 medium (Gibco, 22400-105) supplemented with 10% fetal bovine serum (Gibco, 10099-141), 100 U/mL penicillin, and 100 µg/mL streptomycin (Gibco, 15140122). Subsequently, 190 µL of the PBMC suspension was added to each well of 96-well clear cell culture plates (Corning, 3599) to achieve a density of 1×10^5 cells/well. The cell plates were incubated at 37°C in a 5% CO2 incubator for 30 minutes. Then, 5 µL of diluted compound solution was added to the corresponding cell-seeded wells to achieve final concentrations ranging from 0.046 to 3,000 nM. The final concentration of DMSO was 0.1%. After the compound-treated cell plate was incubated at 37°C in a 5% CO2 incubator for 24 hours, 5 µL of R848 (MCE, HY-13740) was added to achieve a final concentration of 10 µg/mL. The cell plates were incubated again at 37°C in a 5% CO2 incubator for 5 hours, then centrifuged at 1,000 rpm for 1 minute. 100 µL of the cell supernatant from each well was transferred to a new 96-well clear cell culture plate for IL-6 concentration testing.
Interleukin-6 (IL-6) ELISA assay
The IL-6 concentration in the supernatant of R848-induced human PBMCs was determined using a Human IL-6 (interleukin-6) ELISA KIT (4Bio, CHE0009-048). IL-6 standard solutions at different concentrations, ranging from 3.9 to 250 pg/mL, were prepared according to the manufacturer's instructions. 100 µL of each concentration of the IL-6 standard solution and the pre-diluted test cell supernatant samples were added separately to anti-IL-6 antibody-coated and blocked clear 96-well plates, followed by incubation at 37°C for 1.5 hours. According to the product instructions, the plates were washed, 100 µL of biotinylated antibody was added, and the plates were incubated at 37°C for 1 hour. The plates were washed, 100 µL of enzyme conjugate working solution was added. The plates were incubated at 37°C for 30 minutes, and then washed. 100 µL of chromogenic substrate was added, and the plates were incubated at 37°C for 10-20 minutes. The reaction was terminated by adding 100 µL of stop solution. After the reaction, the OD value at 450 nm was measured in absorbance mode using an Envision microplate reader (PerkinElmer). A standard curve was plotted using the corrected OD values of the various concentrations of IL-6 standard solutions. The IL-6 concentration in each cell supernatant was then determined on the basis of the corresponding concentration for the corrected OD value of the test sample on the standard curve. […] Subsequently, the IC50 value of the compound was calculated by performing non-linear curve fitting of concentration versus inhibition rate using GraphPad Prism 9.

IRAK4 = biological target: T1, IRAK4 (Homo sapiens, UniProt Q9NWZ3); assay: Assay for inhibitory effect of compound on IRAK4 kinase activity (KinEASE-STK S1 HTRF kit); assay type: biochemical
T1 sequence (Q9NWZ3 1-460): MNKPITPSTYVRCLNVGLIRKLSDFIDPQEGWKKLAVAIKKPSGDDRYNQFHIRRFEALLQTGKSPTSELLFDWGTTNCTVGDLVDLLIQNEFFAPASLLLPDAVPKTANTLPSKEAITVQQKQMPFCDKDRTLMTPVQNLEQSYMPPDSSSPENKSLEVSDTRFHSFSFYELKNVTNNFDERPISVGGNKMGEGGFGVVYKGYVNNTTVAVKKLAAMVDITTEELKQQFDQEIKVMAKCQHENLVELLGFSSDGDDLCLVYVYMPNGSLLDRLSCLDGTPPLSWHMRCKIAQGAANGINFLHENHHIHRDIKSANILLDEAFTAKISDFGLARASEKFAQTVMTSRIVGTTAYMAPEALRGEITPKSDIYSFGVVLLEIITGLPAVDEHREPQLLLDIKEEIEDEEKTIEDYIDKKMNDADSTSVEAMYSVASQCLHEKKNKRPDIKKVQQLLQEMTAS
Outline: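 HTRF assay: 8 nM IRAK4 preincubated 15 minutes at rt with compound (final 5,000–0.0254 nM, 3-fold dilutions), then 400 nM biotinylated STK1 substrate and 80 µM ATP, 90 minutes at 37°C. Eu-cryptate anti-phospho-Ser/Thr antibody and streptavidin-XL665 detection, 665/620 ratio; IC50 from nonlinear fit of inhibition.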

[1] = kinase 8 nM, ATP 80 µM, 37°C 90 minutes, read-out: IRAK4 HTRF IC50

`COc1ccc(C(=O)N2CCC(CCN3CCN(c4ccc(-n5cc(NC(=O)c6cccc(C(F)(F)F)n6)c(C(N)=O)n5)cc4)CC3)C(F)(F)C2)cc1N1CCC(=O)NC1=O` (stereo not shown) [Compound A168] gave an IC50 (IL-6) of under 10 nM.

`NC(=O)c1nn(-c2ccc(N3CCN(CC4CCN(c5ccc(C(=O)NC6CCC(=O)NC6=O)cc5)CC4)CC3)cc2)cc1NC(=O)c1cccc(C(F)(F)F)n1` (stereo not shown) [Compound A171] was tested, and the IC50 (IL-6) was 10 to 30 nM.

In the case of `O=C(Nc1cn(C2CCNC2)nc1C(=O)NC1CC1)c1cccc(-c2ccn[nH]2)n1` (stereo not shown) [Compound A254, N-(3-(Cyclopropylcarbamoyl)-1-(pyrrolidin-3-yl)-1H-pyrazol-4-yl)-6-(1H-pyrazol-5-yl)picolinamide], the IC50 (IRAK4; [1]) is reported as 100 to 1000 nM.

With `O=C(Nc1cn(C2CCCCC2)nc1C(=O)NC1CC1)c1cccc(-c2ccn[nH]2)n1` [Compound A255, N-(1-Cyclohexyl-3-(cyclopropylcarbamoyl)-1H-pyrazol-4-yl)-6-(1H-pyrazol-5-yl)picolinamide] the IC50 (IRAK4; [1]) was 100 to 1000 nM.

Compound `O=C(Nc1cn(C2CCNCC2)nc1C(=O)NC1CC1)c1cccc(-c2ccn[nH]2)n1` [Compound A256, N-(3-(Cyclopropylcarbamoyl)-1-(piperidin-4-yl)-1H-pyrazol-4-yl)-6-(1H-pyrazol-5-yl)picolinamide] has an IC50 (IRAK4; [1]) of under 100 nM.

For `O=C(Nc1cn(-c2cccnc2)nc1C(=O)NC1CC1)c1cccc(-c2ccn[nH]2)n1` [Compound A257, N-(3-(Cyclopropylcarbamoyl)-1-(pyridin-3-yl)-1H-pyrazol-4-yl)-6-(1H-pyrazol-5-yl)picolinamide], the IC50 (IRAK4; [1]) was under 100 nM.

`NC(=O)c1nn(C23CC(C2)C3)cc1NC(=O)c1cccc(C(F)(F)F)n1` [Compound A258] showed an IC50 (IRAK4; [1]) of 100 to 1000 nM.

With `CC(C)(O)c1nn(C2CCCCC2)cc1NC(=O)c1ccc2cc(C#N)cnn12` [Compound A259, 3-cyano-N-(1-cyclohexyl-3-(2-hydroxypropan-2-yl)-1H-pyrazol-4-yl)pyrrolo[1,2-b]pyridazine-7-carboxamide] the IC50 (IRAK4; [1]) was 100 to 1000 nM.

`NS(=O)(=O)c1nn(C2CCCCC2)cc1NC(=O)c1cccc(-c2ccn[nH]2)n1` [Compound A260, N-(1-Cyclohexyl-3-sulfamoyl-1H-pyrazol-4-yl)-6-(1H-pyrazol-5-yl)picolinamide] was tested, and the IC50 (IRAK4; [1]) was under 100 nM.

`NS(=O)(=O)c1nn(-c2ccccc2)cc1NC(=O)c1cccc(-n2ccnc2)n1` [Compound A261, 6-(1H-Imidazol-1-yl)-N-(1-phenyl-3-sulfamoyl-1H-pyrazol-4-yl)picolinamide] showed an IC50 (IRAK4; [1]) of under 100 nM.

In the case of `COc1nn(-c2ccccc2)cc1NC(=O)c1cccc(C(=O)c2cn[nH]c2)n1` [Compound A262, N-(3-methoxy-1-phenyl-1H-pyrazol-4-yl)-6-(1H-pyrazole-4-carbonyl)picolinamide], the IC50 (IRAK4; [1]) is reported as under 100 nM.

With `COc1nn(C2CCCCC2)cc1NC(=O)c1cccc(-c2ccn[nH]2)n1` [Compound A263, N-(1-Cyclohexyl-3-methoxy-1H-pyrazol-4-yl)-6-(1H-pyrazol-5-yl)picolinamide] the IC50 (IRAK4; [1]) was 100 to 1000 nM.

For `CC(F)(F)c1cccc(C(=O)Nc2cn(-c3ccccc3)nc2C(N)=O)n1` [Compound A264], the IC50 (IRAK4; [1]) was 100 to 1000 nM.

Compound `CC(F)(F)c1cccc(C(=O)Nc2cn(-c3ccccc3)nc2C(=O)NC2CC2)n1` [Compound A265, N-(3-(Cyclopropylcarbamoyl)-1-phenyl-1H-pyrazol-4-yl)-6-(1,1-difluoroethyl)picolinamide] has an IC50 (IRAK4; [1]) of 100 to 1000 nM.

`N#Cc1cnn2c(C(=O)Nc3cn(C4CCCCC4)nc3C(F)F)ccc2c1` [Compound A266, 3-cyano-N-(1-cyclohexyl-3-(difluoromethyl)-1H-pyrazol-4-yl)pyrrolo[1,2-b]pyridazine-7-carboxamide] was tested, and the IC50 (IRAK4; [1]) was 100 to 1000 nM.

Work on `NS(=O)(=O)c1nn(C2CCC2)cc1NC(=O)c1ccn2ncc(-c3ccn[nH]3)c2n1` [Compound A278, N-(1-cyclobutyl-3-sulfonamide-1H-pyrazol-4-yl)-3-(1H-pyrazol-5-yl)pyrazolo[1,5-a]pyrimidine-5-carboxamide] yielded an IC50 (IRAK4) of under 100 nM.

`O=C(Nc1cn(C2CCC2)nc1C(F)F)c1ccn2ncc(-c3ccn[nH]3)c2n1` [Compound A279, N-(1-cyclobutyl-3-(difluoromethyl)-1H-pyrazol-4-yl)-3-(1H-pyrazol-5-yl)pyrazolo[1,5-a]pyrimidine-5-carboxamide] showed an IC50 (IRAK4; [1]) of 100 to 1000 nM.

`NC(=O)c1nn(C2CCC2)cc1NC(=O)c1ccn2ncc(-c3ccn[nH]3)c2n1` [Compound A280, N-(3-carbamoyl-1-cyclobutyl-1H-pyrazol-4-yl)-3-(1H-pyrazol-5-yl)pyrazolo[1,5-a]pyrimidine-5-carboxamide] gave an IC50 (IRAK4; [1]) of 100 to 1000 nM.

Compound `CC(C)(O)c1nn(C2CCC2)cc1NC(=O)c1ccn2ncc(-c3ccn[nH]3)c2n1` [Compound A281, N-(1-cyclobutyl-3-(2-hydroxypropan-2-yl)-1H-pyrazol-4-yl)-3-(1H-pyrazol-5-yl)pyrazolo[1,5-a]pyrimidine-5-carboxamide] has an IC50 (IRAK4; [1]) of 100 to 1000 nM.

`O=C(NC1CC1)c1nn(C2CCC2)cc1NC(=O)c1cnn2ccc(-c3ccn[nH]3)nc12` [Compound A286, N-(1-cyclobutyl-3-(cyclopropylcarbamoyl)-1H-pyrazol-4-yl)-5-(1H-pyrazol-5-yl)pyrazolo[1,5-a]pyrimidine-3-carboxamide] gave an IC50 (IRAK4; [1]) of 100 to 1000 nM.

Compound `O=C(NC1CC1)c1nn(C2CCC2)cc1NC(=O)c1cnn2ccc(-c3cn[nH]c3)nc12` [Compound A287] has an IC50 (IRAK4; [1]) of 100 to 1000 nM.

Compound `COc1nn(C2CCC2)cc1NC(=O)c1cnn2ccc(-c3ccn[nH]3)nc12` [Compound A288, N-(1-cyclobutyl-3-methoxy-1H-pyrazol-4-yl)-5-(1H-pyrazol-5-yl)pyrazolo[1,5-a]pyrimidine-3-carboxamide] has an IC50 (IRAK4; [1]) of under 100 nM.

`COc1nn(C2CCC2)cc1NC(=O)c1cnn2ccc(-c3cn[nH]c3)nc12` [Compound A289, N-(1-cyclobutyl-3-methoxy-1H-pyrazol-4-yl)-5-(1H-pyrazol-4-yl)pyrazolo[1,5-a]pyrimidine-3-carboxamide] was tested, and the IC50 (IRAK4; [1]) was under 100 nM.

Work on `CC(C)(O)c1nn(C2CCC2)cc1NC(=O)c1cnn2ccc(-c3ccn[nH]3)nc12` [Compound A290, N-(1-cyclobutyl-3-(2-hydroxypropan-2-yl)-1H-pyrazol-4-yl)-5-(1H-pyrazol-5-yl)pyrazolo[1,5-a]pyrimidine-3-carboxamide] yielded an IC50 (IRAK4; [1]) of 100 to 1000 nM.

With `O=C(Nc1cn(C2CCC2)nc1C(F)F)c1cnn2ccc(-c3ccn[nH]3)nc12` [Compound A291, N-(1-cyclobutyl-3-(difluoromethyl)-1H-pyrazol-4-yl)-5-(1H-pyrazol-5-yl)pyrazolo[1,5-a]pyrimidine-3-carboxamide] the IC50 (IRAK4; [1]) was under 100 nM.

`NC(=O)c1nn(C2CCC2)cc1NC(=O)c1cnn2ccc(-c3ccn[nH]3)nc12` [Compound A292, N-(3-Carbamoyl-1-cyclobutyl-1H-pyrazol-4-yl)-5-(1H-pyrazol-5-yl)pyrazolo[1,5-a]pyrimidine-3-carboxamide] showed an IC50 (IRAK4; [1]) of under 100 nM.

For `NS(=O)(=O)c1nn(C2CCC2)cc1NC(=O)c1cnn2ccc(-c3ccn[nH]3)nc12` [Compound A293, N-(1-cyclobutyl-3-sulfamoyl-1H-pyrazol-4-yl)-5-(1H-pyrazol-5-yl)pyrazolo[1,5-a]pyrimidine-3-carboxamide], the IC50 (IRAK4; [1]) was under 100 nM.

`NC(=O)c1nn(-c2ccccc2)cc1NC(=O)c1cccc(-c2nc[nH]n2)n1` [Compound A457, N-(3-Carbamoyl-1-phenyl-1H-pyrazol-4-yl)-6-(1H-1,2,4-triazol-3-yl)picolinamide] was tested, and the IC50 (IRAK4; [1]) was 100 to 1000 nM.
